Measurements: patent US10028914B2, “Reduction type coenzyme Q10 powder, composition thereof, and preparation method thereof” (Zhejiang Medicine Co., Ltd. Xinchang Pharmaceutical Factory, priority 2013, dated 2018)
Like-named read-outs stand apart in the source and are kept apart here.

How the values were obtained:
[1] = Stability experiment: retention rate of reduced coenzyme Q10 on storage; format: physicochemical; settings: stored under shading or nitrogen at 18° C.
Description: Determining the proportion of reduced coenzyme Q10 in reduced coenzyme Q10 powder or crystals by the HPLC method. Determination conditions are as follows:
Instruments: Agilient 1210
Mobile phase: ethanol/methanol=4/3(V/V)
Detection wavelength: 210 nm
Sample 1 and Sample 2 and Sample 3 obtained by Example 1, Example 2, Example 3 are respectively stored under shading or nitrogen for two months at 18° C. The retention rate of reduced coenzyme Q10 is respectively determined within 1 month and 2 months.

[2] = Beagle feeding experiment: pharmacokinetic parameters and relative bioavailability; format: in vivo; settings: gastric gavage 20 mg/kg, average
Description: Sample 1 and Sample 2 and Sample 3 obtained by Example 1, Example 2, Example 3 are used for beagle feeding experiment respectively, and the reduced coenzyme Q10 concentration in blood of feed beagle is determined, a basic pharmacokinetic parameters and relative bioavailability is calculated.
4 beagles, half male and half female, 9-12 kg weight, provided by Shanghai Institute of Medicine Center for experimental animals, laboratory animals use license: SYXK (Shanghai), 2010-0049. A cross double cycle test is made. Gastric gavage is respectively for Sample 1, 2, 3, to fill stomach in a dose of 20 mg/kg, a delivery volume of 2 ml/kg. Samples with a suspension of soybean oil mixture for medicine (filling water 20 ml after feeding), normally feeding and drinking before testing, feeding feed containing meat on morning of the same day of feeding the medicine, to fill the stomach after 30 min. Two cycle tests are interval for a week.
Calculate the Pharmacokinetic Parameters of Compounds by WinNonlin 5.3 Software.
Peak-reaching time Tmax and peak-reaching concentration Cmax use measured values. Drug concentration area under time curve AUC0-t value is calculated by the trapezoidal method, AUC0-∞ is calculated by the formula AUC0-∞=AUC0-t+Ct/ke. Ct is a concentration measured by the last time point, ke is an eliminate rate constant, with half logarithmic mapping method, calculation by eliminating the concentration of the phase; Plasma elimination half-life t1/2=0.693/ke. Relative bioavailability F=(AUC0-t, Sample 2 or 3/AUC0-t, Sample 1)×100%. The main pharmacokinetic parameters after Beagle lavage for 20 mg/kg sample.

[3] = both sexes, dog, blood, po, 20 mg/kg, suspension in soybean oil

Row | SMILES | The retention rate of reduced coenzyme Q10 within 1 month [1] [%] | The retention rate of reduced coenzyme Q10 within 2 months [1] [%] | The retention rate of reduced coenzyme Q10 within 2 months ([1]; listed as reduced coenzyme Q10 powder obtained by the method) [%] | AUC0-t ([2]; suspension in soybean oil) [ng·h/mL] | AUC0-∞ ([2]; suspension in soybean oil) [ng·h/mL] | Cmax ([2]; suspension in soybean oil) [ng/mL] | MRT ([2]; suspension in soybean oil) [h] | Tmax ([2]; suspension in soybean oil) [h] | t1/2 ([2]; suspension in soybean oil) [h] | The retention rate of reduced coenzyme Q10 within 2 months ([1]; listed as Samples 2) [%] | bioavailability ([2]; both sexes, dog, blood, po, 20 mg/kg, F=(AUC0-t, Sample 2 or 3/AUC0-t, Sample 1)×100%) [%] | AUC(0-inf) [2, 3] [ng·h/mL] | half-life [2, 3] [h] | AUC0-t ([2]; both sexes, dog, blood, po, 20 mg/kg, suspension in soybean oil, read-out: AUC0-t) [ng·h/mL] | Cmax ([2]; both sexes, dog, blood, po, 20 mg/kg, suspension in soybean oil, read-out: Cmax) [ng/mL] | MRT ([2]; both sexes, dog, blood, po, 20 mg/kg, suspension in soybean oil, read-out: MRT) [h] | Tmax ([2]; both sexes, dog, blood, po, 20 mg/kg, suspension in soybean oil, read-out: Tmax) [h]
1 | COc1c(O)c(C)c(C/C=C(\C)CC/C=C(\C)CC/C=C(\C)CC/C=C(\C)CC/C=C(\C)CC/C=C(\C)CC/C=C(\C)CC/C=C(\C)CC/C=C(\C)CCC=C(C)C)c(O)c1OC [Sample 1, reduced coenzyme Q10] | 98.4 | 95.5 | 95.5 | 3640 | 2865 | 303 | 10.9 | 7.5 | 6.11 |  |  |  |  |  |  |  | 
2 | COc1c(O)c(C)c(C/C=C(\C)CC/C=C(\C)CC/C=C(\C)CC/C=C(\C)CC/C=C(\C)CC/C=C(\C)CC/C=C(\C)CC/C=C(\C)CC/C=C(\C)CCC=C(C)C)c(O)c1OC [Sample 2, reduced coenzyme Q10] | 75.4 | 66.3 |  | 2359 | 2405 | 261 | 7.77 | 4.5 | 3.94 | 66.3 |  |  |  |  |  |  | 
3 | COc1c(O)c(C)c(C/C=C(\C)CC/C=C(\C)CC/C=C(\C)CC/C=C(\C)CC/C=C(\C)CC/C=C(\C)CC/C=C(\C)CC/C=C(\C)CC/C=C(\C)CCC=C(C)C)c(O)c1OC [Sample 3, reduced coenzyme Q10] | 89.3 | 85.4 |  |  |  |  |  |  |  |  | 74.7 | 2660 | 4.76 | 2760 | 287 | 8.35 | 6.3
